# How the values were obtained:
# Assay in all cases: relative viability (nuclei count vs DMSO), 5 days (fraction); higher = more cells survive
# COR-L 105 = tested on: COR-L 105
# Outline: (§1)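 Lung cancer cell lines in 1536-well plates got either a single drug or a fixed anchor-drug dose together with five library-drug doses (not always all listed) in √10 steps, by pin tool, on the day after seeding. Nuclei were counted after 5 days, and relative viability is the treated-to-vehicle ratio of nuclei counts. Values are medians of duplicate plates.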
# COR-L23 = tested on: COR-L23
# Outline: as §1
# HARA = tested on: HARA
# Outline: as §1
# HCC-15 = tested on: HCC-15
# Outline: as §1
# HOP-62 = tested on: HOP-62
# Outline: as §1
# NCI-H1355 = tested on: NCI-H1355
# Outline: as §1
# NCI-H1395 = tested on: NCI-H1395
# Outline: as §1
# NCI-H1734 = tested on: NCI-H1734
# Outline: as §1
# NCI-H1755 = tested on: NCI-H1755
# Outline: as §1
# NCI-H1792 = tested on: NCI-H1792
# Outline: as §1
# NCI-H1793 = tested on: NCI-H1793
# Outline: as §1
# NCI-H1993 = tested on: NCI-H1993
# Outline: as §1
# NCI-H2009 = tested on: NCI-H2009
# Outline: as §1
# NCI-H2170 = tested on: NCI-H2170
# Outline: as §1
# NCI-H2228 = tested on: NCI-H2228
# Outline: as §1
# NCI-H2347 = tested on: NCI-H2347
# Outline: as §1
# NCI-H358 = tested on: NCI-H358
# Outline: as §1
# NCI-H522 = tested on: NCI-H522
# Outline: as §1
# NCI-H647 = tested on: NCI-H647
# Outline: as §1
# NCI-H838 = tested on: NCI-H838
# Outline: as §1
# SK-MES-1 = tested on: SK-MES-1
# Outline: as §1
# UMC-11 = tested on: UMC-11
# Outline: as §1
smiles,measurement,setting,value
CCN(CC)CCCCNc1ncc2cc(-c3cc(OC)cc(OC)c3)c(NC(=O)NC(C)(C)C)nc2n1 + CC(=O)c1c(C)c2cnc(Nc3ccc(N4CCNCC4)cn3)nc2n(C2CCCC2)c1=O [Palbociclib] (partner 0.5 µM),relative viability,COR-L 105; first compound 0.01 µM,0.398
same,relative viability,COR-L 105; first compound 0.03162 µM,0.393
same,relative viability,COR-L 105; first compound 0.1 µM,0.427
same,relative viability,COR-L 105; first compound 0.3162 µM,0.423
same,relative viability,COR-L 105; first compound 1 µM,0.405
same,relative viability,COR-L23; first compound 0.01 µM,0.291
same,relative viability,COR-L23; first compound 0.03162 µM,0.343
same,relative viability,COR-L23; first compound 0.1 µM,0.341
same,relative viability,COR-L23; first compound 0.3162 µM,0.312
same,relative viability,COR-L23; first compound 1 µM,0.248
same,relative viability,HARA; first compound 0.01 µM,0.228
same,relative viability,HARA; first compound 0.03162 µM,0.243
same,relative viability,HARA; first compound 0.1 µM,0.306
same,relative viability,HARA; first compound 0.3162 µM,0.223
same,relative viability,HARA; first compound 1 µM,0.269
same,relative viability,HCC-15; first compound 0.01 µM,0.82
same,relative viability,HCC-15; first compound 0.03162 µM,0.826
same,relative viability,HCC-15; first compound 0.1 µM,0.826
same,relative viability,HCC-15; first compound 0.3162 µM,0.797
same,relative viability,HCC-15; first compound 1 µM,0.729
same,relative viability,HOP-62; first compound 0.01 µM,0.463
same,relative viability,HOP-62; first compound 0.03162 µM,0.455
same,relative viability,HOP-62; first compound 0.1 µM,0.481
same,relative viability,HOP-62; first compound 0.3162 µM,0.425
same,relative viability,HOP-62; first compound 1 µM,0.45
same,relative viability,NCI-H1355; first compound 0.01 µM,0.378
same,relative viability,NCI-H1355; first compound 0.03162 µM,0.402
same,relative viability,NCI-H1355; first compound 0.1 µM,0.465
same,relative viability,NCI-H1355; first compound 0.3162 µM,0.376
same,relative viability,NCI-H1355; first compound 1 µM,0.364
same,relative viability,NCI-H1395; first compound 0.01 µM,0.637
same,relative viability,NCI-H1395; first compound 0.03162 µM,0.59
same,relative viability,NCI-H1395; first compound 0.1 µM,0.661
same,relative viability,NCI-H1395; first compound 0.3162 µM,0.546
same,relative viability,NCI-H1395; first compound 1 µM,0.448
same,relative viability,NCI-H1734; first compound 0.01 µM,0.16
same,relative viability,NCI-H1734; first compound 0.03162 µM,0.281
same,relative viability,NCI-H1734; first compound 0.1 µM,0.334
same,relative viability,NCI-H1734; first compound 0.3162 µM,0.38
same,relative viability,NCI-H1734; first compound 1 µM,0.323
same,relative viability,NCI-H1755; first compound 0.01 µM,0.474
same,relative viability,NCI-H1755; first compound 0.03162 µM,0.448
same,relative viability,NCI-H1755; first compound 0.1 µM,0.462
same,relative viability,NCI-H1755; first compound 0.3162 µM,0.472
same,relative viability,NCI-H1755; first compound 1 µM,0.459
same,relative viability,NCI-H1792; first compound 0.01 µM,0.66
same,relative viability,NCI-H1792; first compound 0.03162 µM,0.623
same,relative viability,NCI-H1792; first compound 0.1 µM,0.568
same,relative viability,NCI-H1792; first compound 0.3162 µM,0.562
same,relative viability,NCI-H1792; first compound 1 µM,0.639
same,relative viability,NCI-H1793; first compound 0.01 µM,0.288
same,relative viability,NCI-H1793; first compound 0.03162 µM,0.295
same,relative viability,NCI-H1793; first compound 0.1 µM,0.403
same,relative viability,NCI-H1793; first compound 0.3162 µM,0.277
same,relative viability,NCI-H1793; first compound 1 µM,0.269
same,relative viability,NCI-H1993; first compound 0.01 µM,0.368
same,relative viability,NCI-H1993; first compound 0.03162 µM,0.763
same,relative viability,NCI-H1993; first compound 0.1 µM,0.791
same,relative viability,NCI-H1993; first compound 0.3162 µM,0.661
same,relative viability,NCI-H1993; first compound 1 µM,0.738
same,relative viability,NCI-H2009; first compound 0.01 µM,0.211
same,relative viability,NCI-H2009; first compound 0.03162 µM,0.22
same,relative viability,NCI-H2009; first compound 0.1 µM,0.234
same,relative viability,NCI-H2009; first compound 0.3162 µM,0.196
same,relative viability,NCI-H2009; first compound 1 µM,0.161
same,relative viability,NCI-H2170; first compound 0.01 µM,0.38
same,relative viability,NCI-H2170; first compound 0.03162 µM,0.37
same,relative viability,NCI-H2170; first compound 0.1 µM,0.429
same,relative viability,NCI-H2170; first compound 0.3162 µM,0.409
same,relative viability,NCI-H2170; first compound 1 µM,0.385
same,relative viability,NCI-H2228; first compound 0.01 µM,1.23
same,relative viability,NCI-H2228; first compound 0.03162 µM,0.561
same,relative viability,NCI-H2228; first compound 0.1 µM,0.434
same,relative viability,NCI-H2228; first compound 0.3162 µM,0.862
same,relative viability,NCI-H2228; first compound 1 µM,0.513
same,relative viability,NCI-H2347; first compound 0.01 µM,0.551
same,relative viability,NCI-H2347; first compound 0.03162 µM,0.452
same,relative viability,NCI-H2347; first compound 0.1 µM,0.415
same,relative viability,NCI-H2347; first compound 0.3162 µM,0.484
same,relative viability,NCI-H2347; first compound 1 µM,0.387
same,relative viability,NCI-H358; first compound 0.01 µM,0.146
same,relative viability,NCI-H358; first compound 0.03162 µM,0.123
same,relative viability,NCI-H358; first compound 0.1 µM,0.159
same,relative viability,NCI-H358; first compound 0.3162 µM,0.139
same,relative viability,NCI-H358; first compound 1 µM,0.136
same,relative viability,NCI-H522; first compound 0.01 µM,1.04
same,relative viability,NCI-H522; first compound 0.03162 µM,1.01
same,relative viability,NCI-H522; first compound 0.1 µM,0.921
same,relative viability,NCI-H522; first compound 0.3162 µM,1.12
same,relative viability,NCI-H522; first compound 1 µM,0.935
same,relative viability,NCI-H647; first compound 0.01 µM,0.309
same,relative viability,NCI-H647; first compound 0.03162 µM,0.42
same,relative viability,NCI-H647; first compound 0.1 µM,0.427
same,relative viability,NCI-H647; first compound 0.3162 µM,0.497
same,relative viability,NCI-H647; first compound 1 µM,0.394
same,relative viability,NCI-H838; first compound 0.01 µM,0.197
same,relative viability,NCI-H838; first compound 0.03162 µM,0.223
same,relative viability,NCI-H838; first compound 0.1 µM,0.204
same,relative viability,NCI-H838; first compound 0.3162 µM,0.213
same,relative viability,NCI-H838; first compound 1 µM,0.182
same,relative viability,SK-MES-1; first compound 0.01 µM,0.394
same,relative viability,SK-MES-1; first compound 0.03162 µM,0.345
same,relative viability,SK-MES-1; first compound 0.1 µM,0.32
same,relative viability,SK-MES-1; first compound 0.3162 µM,0.268
same,relative viability,SK-MES-1; first compound 1 µM,0.297
same,relative viability,UMC-11; first compound 0.01 µM,0.338
same,relative viability,UMC-11; first compound 0.03162 µM,0.305
same,relative viability,UMC-11; first compound 0.1 µM,0.351
same,relative viability,UMC-11; first compound 0.3162 µM,0.313
same,relative viability,UMC-11; first compound 1 µM,0.343

# — the supplement of paper PMC10307832
